The values that follow come from patent US20220249399A1, “COMPOSITION COMPRISING AN ANTI-OXIDANT TO PRESERVE CORNEAL TISSUE” (University of lowa Research Foundation, priority 2019, published 2022).

Entries after “also recorded” stand apart in the source; their conditions may differ. Structures can show the parent of a compound that is named as a salt.

The subject of assay [1] is primary cultures of corneal endothelial cells. Briefly: Seahorse XFe96 mitochondrial respiration of primary cultures of corneal endothelial cells. It counts as cell-based, human. The method, then:
(§1) Human corneas were obtained by Iowa Lions Eye Bank (ILEB) from nondiabetic donors 60-75 years old and stored in Optisol GS (Bausch+Lomb, Irvine, Calif.) at 4° C. following procurement in accordance with Eye Bank Association of America and ILEB policies and procedures. Endothelial cells were isolated and cultured in Seahorse XFe96 well plates until they reached confluency. Purity of cell cultures were confirmed with anti-zonula occludens 1 (ZO-1) labeling of cellular tight junctions. Once confluent, cells were treated with different concentrations of cyclodextrin-coenzyme Q10 complex in culture (1 μM, 10 μM, or 100 μM) uncomplexed coenzyme Q10 (100 μM), cyclodextrin alone, or diluent control. Mitochondrial respiration was assayed by measuring oxygen consumption using the Seahorse XFe96 Extracellular Flux Analyzer (Agilent Technologies, Santa Clara, Calif.) over 120 minutes (9-minute intervals). Wells were labeled with a nuclear counterstain (DAPI) and nuclei were counted in each well to normalize respirometry data.
Seahorse respiration assays were conducted with MitoQ with doses ranging from 0 to 10 μM. All experiments were performed on corneal endothelial cells in culture and analyzed using the XFe96 Extracellular Flux Analyzer.
as §1, with “MitoQ with doses ranging from 0 to” for “different concentrations of cyclodextrin-coenzyme Q10 complex in culture (1 μM,”, “μM.” for “μM, or 100 μM) uncomplexed coenzyme Q10 (100 μM), cyclodextrin alone, or diluent control.”

Assay [2] deals with immortalized human corneal endothelial cells. Nature of the assay: Seahorse XFe24 mitochondrial respiration of immortalized human corneal endothelial cells grown in hyperglycemic medium. It counts as cell-based. The settings on record: 25 days of growth in 5.5-13.0 mM glucose, n=18, P<0.0001. The method, then: FIG. 40. Mitochondrial respiration assay using Seahorse XFe24 extracellular flux analyzer of immortalized human corneal endothelial cells following 25 days of growth in 5.5-13.0 mM glucose and treated with 8.3 μM PQQ (n=18). Maximal respiration and spare respiratory capacity are lowered in HCECs (P<0.0001) due to hyperglycemic growing conditions.
FIG. 41. Mitochondrial respiration assay using Seahorse XFe24 extracellular flux analyzer of immortalized human corneal endothelial cells following 25 days of growth in 5.5-13.0 mM glucose and treated with 1.0 mM NAC (n=18). Maximal respiration and spare respiratory capacity are lowered in HCECs (P<0.0001) due to hyperglycemic growing conditions.

Assay [3] deals with human donor corneal endothelial cells. Briefly: Mitochondrial respiration assay (Seahorse XFe24 extracellular flux analyzer) of donor corneal endothelium after storage in supplemented Optisol GS. It counts as cell-based. The conditions noted are these: 1 mM ascorbate-2-phosphate. The method, then:
Human corneal tissue pairs were obtained by Iowa Lions Eye Bank (ILEB) from nondiabetic donors 60-75 years old and stored in Optisol GS (Bausch+Lomb, Irvine, Calif.) at 4° C. following procurement in accordance with Eye Bank Association of America and ILEB policies and procedures. For 5 days prior to testing, but within 9 days of procurement, one stored tissue from a corneal pair was treated with 10 μM CoQ10, while the mate tissue was treated with diluent only as a control. Descemet membrane and endothelial cell punches were collected and mounted onto the bottom of a Seahorse assay plate (cells facing upward). Mitochondrial respiration was assayed by measuring oxygen consumption using the Seahorse XFe24 Extracellular Flux Analyzer (Agilent Technologies, Santa Clara, Calif.) over 120 minutes (9-minute intervals). Punches were labeled with a nuclear counterstain (DAPI) and remaining tissues were mounted onto slides and labeled with 488A-Annexin V, Ethidium Homodimer III, and Hoechst 33342 (Apoptotic, Necrotic, and Healthy Cells Quantification Kit; Biotium, Fremont, Calif.) to assay cell health. Nuclei were counted in each punch to normalize respirometry data. Immunohistochemistry densitometry was measured using ImageJ software.
Human donor whole globe eye pairs were obtained by Iowa Lions Eye Bank (ILEB) and the anterior portion of the eyes were removed. For 14 days, one cornea was stored from a corneal pair treated with 1 mM ascorbate-2-phosphate, while the mate tissue was treated with diluent only as a control. Descemet membrane and endothelial cell punches were collected and mounted onto the bottom of a Seahorse assay plate (cells facing upward). Mitochondrial respiration was assayed by measuring oxygen consumption using the Seahorse XFe24 Extracellular Flux Analyzer (Agilent Technologies, Santa Clara, Calif.) over 120 minutes (9-minute intervals). Punches were labeled with a nuclear counterstain (DAPI) and nuclei were counted in each punch to normalize respirometry data. […]
Tissue preparation and extracellular flux assays for mitochondrial respiration were performed as described in Greiner et al. (2015). In brief, after pre-stripping the EDM, 3 mm diameter EDM punches were mounted in wells of a XF24 microplate (Agilent Technologies, Santa Clara, Calif.). After acclimation for one hour at 37° C. in non-buffered assay media, metabolic activity of the EDM samples was quantified using a commercial kit (XF Cell Mito Stress Test Kits; Agilent Technologies) on a Seahorse XFe24 extracellular flux analyzer (Agilent Technologies). Following extracellular flux analysis, tissues were labeled fluorescently using a 1:1000 Sytox Green nucleic acid stain in the microtiter plate (Life Technologies, Grand Island, N.Y.) and imaged on an Olympus IX-81 inverted microscope (Olympus America, Center Valley, Pa.) using a FITC filter. Cell counts were determined using Image J (https://imagej.nih.gov/ij/download.html) and used to compute the oxygen consumption rate per cell (OCR; pmole/min/cell). Raw OCR values were used to calculate several different key parameters of metabolic function per manufacturer's directions (Agilent Technologies), as in Aldrich et al. (2017). The parameters and calculations used in this study were the main outcome measures, including basal respiration, ATP-associated oxygen consumption, proton [H^+] leak, maximal respiration, spare respiratory capacity, non-mitochondrial respiration, and coupling efficiency as described in Schneider et al. and Goldstein et al. (2018).
Mitochondrial Respiration Assay: 3 mm punches of central and peripheral endothelium-Descemet membrane complex (EDM) were secured to the bottom of cell culture microplate wells or CECs were grown directly onto microplate.

Where [4] appears, read: MitoQ 0 to 10 μM (data not shown).
Where [5] appears, read: MitoQ 0 to 10 μM, control vs 10 μM P<0.001, n=3.

In the case of cyclodextrin [cyclodextrin alone], in assay [1] (uncomplexed coenzyme Q10 (100 μM) or cyclodextrin alone vs diluent control), the “mitochondrial spare respiratory capacity” value is recorded as “reduces the mitochondrial spare respiratory capacity”.
For the molecule `O=C(O)c1cc(C(=O)O)c2c(n1)C(=O)C(=O)c1cc(C(=O)O)[nH]c1-2` [PQQ, pyrroloquinoline quinone], the “maximal respiration and spare respiratory capacity lowered by hyperglycemic growing conditions” value in assay [2] (8.3 μM PQQ) is on record as “mitigates this effect”.
`CC(=O)N[C@@H](CS)C(=O)O` [NAC, N-Acetyl-L-cysteine]: the “maximal respiration and spare respiratory capacity lowered by hyperglycemic growing conditions” value in assay [2] (1.0 mM NAC) is reported as “mitigates this effect”.
With `COC1=C(OC)C(=O)C(CCCCCCCCCC[P+](c2ccccc2)(c2ccccc2)c2ccccc2)=C(C)C1=O` [MitoQ, mitoquinone mesylate], in assay [1] (setting [4]), the basal respiration entry is listed as “dose dependent reductions”, the maximal respiration result is “dose dependent reductions”, the non-mitochondrial respiration entry is listed as “not influenced” and the proton leak entry is given as “not influenced”. In assay [1] (setting [5]), the “ATP linked oxygen consumption (ATP linked respiration)” value is given as “dose dependent decrease; also recorded: significantly different” and the spare respiratory capacity entry was “dose dependent decrease; also recorded: significantly different”. In assay [1] (escalating doses of MitoQ, 0 to 10 μM), the respiratory function result was “dose dependent decrease in respiratory function; also recorded: decreased in respiratory function”.
For ascorbate-2-phosphate, the “corneal endothelial cell mitochondrial respiration” value in assay [3] was “did not affect corneal endothelial cell mitochondrial respiration”. Also, in assay [3] (14 days storage, 5 paired corneas, p-value=0.053), the “non-mitochondrial respiration, higher level than untreated control cells” value turned out to be 21%.
